Data published in publication PMC8047011, “Enantiomers of 2-methylglutamate and 2-methylglutamine selectively impact mouse brain metabolism and behavior” (Scientific Reports, 2021).
Where two headings read alike, the source gives them in different places.

Assays:
C57Bl/6 mice = format: in vivo; conditions: for Distance moved in the novel cage: single dose 100, 300, or 900 mg/kg IP, dose- and time-dependent, P < 0.001
Method: See Supplementary Methods for details.
The lysate was centrifuged (2,500g for 15 min at 4 °C) and the supernatant was assayed using Pierce BCA Protein Assay Kit (23225) using BioTek Epoch plate spectrophotometer by recording absorbance at 562 nm.
Two or three 10 μL aliquots of the homogenate were transferred to a 96 well plate and extracted with 190 μL of 60% acetonitrile in water containing 10 μM GABA-d6 or 10 μM Glu-d5 and Gln-d5 as internal standards. 40 μL aliquots of the extracts were then diluted with 120 μL of acetonitrile and prepared for LC-MS/MS analysis. Brain and serum half-lives were calculated using the ‘PKNCA’ package for R. Endogenous levels of Glu, Gln and GABA were determined in the brains of mice used in the pharmacokinetics experiment. MRM transitions specific for Glu, Gln and GABA were monitored simultaneously.
In vivo animal studies; Maximum Tolerated Dose (MTD) and behavioral studies […]
000664) were group-housed in a Stanford University animal facility with 12:12 hour light/dark cycle ([…]) and had free access to water and food. All behavioral tests were conducted during the animal dark-cycle. […]
Novel Cage Observation: The mouse was dosed and immediately placed in the center of a clean, Innovive disposable rat cage with bedding (dimensions: 17"L x 13.4"W x 7.8"H) and allowed to move freely while being tracked automatically. Mice were monitored with Ethovision XT tracking software for the distance moved and average velocity during the 60-minute trial. […]
Hot plate test: Hot Plate apparatus (IITC Inc. Model 39) was set to 55°C± 0.2. […] Latency time was recorded when hind paw licking or jumping off first occurred.
SHIRPA: The SHIRPA preliminary screen designed by Rogers et al. (1997) was modified and used to assess the general health and behavioral traits of the mice for the initial five minutes after drug administration. […] The test began by placing the mouse in the clear plastic viewing jar for 60 seconds, and the behavioral parameters were monitored and recorded. […]
Behavioral parameters monitored were according to Portmann et al. (2014). […]

mGluR5 = target: T1, mGluR5 (Homo sapiens, UniProt P41594); experiment: mGluR5 radioligand binding assay; conditions: triplicate
T1 construct: purchased SB Drug Discovery (CNS discovery panel, FLIPR); Eurofins Discovery (Cerep)
T1 sequence (P41594 21-1212): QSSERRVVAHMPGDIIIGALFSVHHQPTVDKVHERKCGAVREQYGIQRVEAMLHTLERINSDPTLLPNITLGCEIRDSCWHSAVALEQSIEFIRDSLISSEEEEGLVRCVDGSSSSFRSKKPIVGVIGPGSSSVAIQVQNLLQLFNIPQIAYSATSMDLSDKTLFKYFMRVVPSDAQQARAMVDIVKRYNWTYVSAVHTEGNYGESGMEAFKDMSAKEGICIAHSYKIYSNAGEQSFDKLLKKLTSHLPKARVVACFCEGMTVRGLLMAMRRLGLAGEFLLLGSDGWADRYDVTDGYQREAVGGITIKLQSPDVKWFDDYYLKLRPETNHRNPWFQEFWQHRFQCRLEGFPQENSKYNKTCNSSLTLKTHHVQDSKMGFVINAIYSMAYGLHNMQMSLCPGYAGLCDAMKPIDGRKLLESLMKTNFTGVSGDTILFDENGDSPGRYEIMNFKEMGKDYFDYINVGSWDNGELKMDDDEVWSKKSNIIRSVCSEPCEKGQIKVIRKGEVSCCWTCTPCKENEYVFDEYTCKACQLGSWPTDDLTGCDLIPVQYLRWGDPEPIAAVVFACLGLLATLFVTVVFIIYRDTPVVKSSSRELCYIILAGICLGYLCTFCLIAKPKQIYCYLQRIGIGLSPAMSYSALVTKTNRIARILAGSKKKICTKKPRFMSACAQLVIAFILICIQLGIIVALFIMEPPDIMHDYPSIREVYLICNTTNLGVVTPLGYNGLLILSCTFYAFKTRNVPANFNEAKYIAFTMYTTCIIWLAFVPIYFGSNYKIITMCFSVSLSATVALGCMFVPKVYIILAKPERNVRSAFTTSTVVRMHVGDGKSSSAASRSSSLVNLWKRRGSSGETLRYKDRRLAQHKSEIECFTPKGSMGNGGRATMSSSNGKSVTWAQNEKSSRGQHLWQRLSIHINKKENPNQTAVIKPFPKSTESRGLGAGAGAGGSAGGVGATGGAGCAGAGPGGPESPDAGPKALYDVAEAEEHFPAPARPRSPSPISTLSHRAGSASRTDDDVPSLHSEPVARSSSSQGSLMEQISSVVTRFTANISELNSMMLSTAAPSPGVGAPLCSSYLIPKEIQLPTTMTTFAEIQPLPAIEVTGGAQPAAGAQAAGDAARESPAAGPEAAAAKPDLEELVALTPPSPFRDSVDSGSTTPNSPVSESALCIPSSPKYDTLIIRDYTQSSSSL
Method: (§1) mGluR1, mGluR2, mGluR5 and GABAB binding assays were performed by Eurofins Discovery. […]
mGluR5 and GABAB binding assays were performed using recombinant CHO-K1 cells and
(§2) [3H]CGP-54626 and [3H]quisqalic acid, respectively. All compounds were tested at a single
(§3) concentration of 100 uM in triplicate. […]

[1] = target: human glutamine synthetase (Homo sapiens, UniProt P15104); experiment: Catalysis of 2MeGlu C5-amidation by human glutamine synthetase; format: biochemical; conditions: 10 mM substrate, 5 ng/mL enzyme, ATP, NH4Cl
Chain of human glutamine synthetase (P15104 whole entry): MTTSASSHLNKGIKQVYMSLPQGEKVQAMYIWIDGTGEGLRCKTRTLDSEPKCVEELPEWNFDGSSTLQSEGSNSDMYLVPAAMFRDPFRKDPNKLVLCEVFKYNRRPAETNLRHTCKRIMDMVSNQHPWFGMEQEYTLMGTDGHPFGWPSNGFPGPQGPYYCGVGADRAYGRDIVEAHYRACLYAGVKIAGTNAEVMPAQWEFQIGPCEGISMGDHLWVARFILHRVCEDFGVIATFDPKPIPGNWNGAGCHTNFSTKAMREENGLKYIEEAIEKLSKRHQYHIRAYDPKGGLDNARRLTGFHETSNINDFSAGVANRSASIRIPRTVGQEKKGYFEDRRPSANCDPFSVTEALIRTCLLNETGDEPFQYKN
Method: The procedure was adapted from an existing protocol. To a reaction mixture in a 1.5 mL microcentrifuge tube containing 10 mM substrate, 10 mM ATP, 20 mM MgCl2, 40 mM NH4Cl, 25 mM 2-mercaptoethanol in 100 mM imidazole–HCl buffer pH 7.0, recombinant human glutamine synthetase (final concentration: 5 ng/mL) was added. The tubes were incubated in a preheated thermomixer at 37 °C and shaken at 600 rpm (30 s on, 30 s off). 5 μL aliquots were collected in triplicate every 5 min and immediately diluted with 195 μL of cold 60% ACN containing 10 μM Glu-d5 and Gln-d5 as internal standards in a 96 well plate. After collecting all samples, 200 μL of ACN was added to all wells and the plate was shaken at 1000 rpm for 5 min at room temperature, and then stored at − 80 °C until analysis.

[2] = tested on: mouse cerebral synaptosomes; experiment: Potassium-induced neurotransmitter release assay; format: cell-based; conditions: preincubated with 100 μM substrate 15 min 37 °C; high-potassium KRP buffer
Method: To each tube, 2.5 μL of a test compound solution (final concentration 100 μM) in Buffer KRP or Buffer KRP alone were added. Samples were incubated for 15 min at 37 °C, briefly chilled on ice, and then immediately centrifuged and washed twice with Buffer KRP. The resulting pellets were then resuspended in either Buffer KRP (500 μL) or Buffer K-KRP (500 μL). Samples were immediately centrifuged or incubated for 5, 10 or 15 min at 37 °C, then centrifuged and washed with Buffer KRP. Resulting pellets were resuspended in 400 μL of 60% ACN containing 2.5 μM Glu-d5 and 2.5 μM Gln-d5 as internal standards.

mGluR2 = target: T2, mGluR2 (Homo sapiens, UniProt Q14416); experiment: mGluR2 radioligand binding assay; conditions: triplicate
T2 construct: purchased SB Drug Discovery (CNS discovery panel, FLIPR); Eurofins Discovery (Cerep)
T2 sequence (Q14416 19-872): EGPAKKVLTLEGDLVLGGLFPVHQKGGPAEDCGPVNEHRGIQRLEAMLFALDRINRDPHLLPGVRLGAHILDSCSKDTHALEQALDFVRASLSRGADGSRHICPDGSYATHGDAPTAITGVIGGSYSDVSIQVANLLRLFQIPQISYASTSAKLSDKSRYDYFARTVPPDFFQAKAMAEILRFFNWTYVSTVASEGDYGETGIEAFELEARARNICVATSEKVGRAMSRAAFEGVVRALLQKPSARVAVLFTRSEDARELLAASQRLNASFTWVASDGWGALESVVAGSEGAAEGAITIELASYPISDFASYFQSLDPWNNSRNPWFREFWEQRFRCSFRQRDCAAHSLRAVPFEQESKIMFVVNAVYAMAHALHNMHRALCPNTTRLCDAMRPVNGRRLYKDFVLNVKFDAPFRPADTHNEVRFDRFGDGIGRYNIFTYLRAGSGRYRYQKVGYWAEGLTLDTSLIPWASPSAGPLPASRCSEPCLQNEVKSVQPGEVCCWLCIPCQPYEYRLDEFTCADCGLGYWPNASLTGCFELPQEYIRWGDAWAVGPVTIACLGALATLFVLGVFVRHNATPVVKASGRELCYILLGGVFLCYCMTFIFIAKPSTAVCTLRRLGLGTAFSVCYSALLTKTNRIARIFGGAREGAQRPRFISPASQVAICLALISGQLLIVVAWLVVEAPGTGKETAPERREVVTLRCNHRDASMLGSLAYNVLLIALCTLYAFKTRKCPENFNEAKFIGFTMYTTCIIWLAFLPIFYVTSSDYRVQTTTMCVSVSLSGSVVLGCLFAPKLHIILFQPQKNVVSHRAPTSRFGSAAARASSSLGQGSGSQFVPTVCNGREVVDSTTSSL
Method: as §1, §2, §3

[3] = tested on: primary murine cerebral astrocytes; experiment: Astrocyte transport and metabolism of 2MeGlu; format: cell-based, mouse; conditions: 1 mM substrate, 2 h, 37 °C
Method: Primary astrocytes from C57Bl/6 mouse brain were cultured in complete astrocyte growth medium at 37 °C at 5% CO2 on 96 well plates. Cells were exposed to 1 mM compound in 100 μL medium for 2 h at 37 °C. Supernatants were collected, centrifuged at 2500g for 10 min at 4 °C. 10 μL aliquots were diluted with 190 μL 60% ACN containing 10 μM Glu-d5 and Gln-d5. Cells were quickly washed with 250 μL cold PBS twice and suspended in 200 μL of 60% ACN containing 10 μM Glu-d5 and Gln-d5. All samples were shaken at 1000 rpm for 5 min and then stored at – 80 °C.

[4] = read-out: % of radioligand binding inhibition, mGluR5 (first line of Table S4)
[5] = read-out: % of radioligand binding inhibition, mGluR5 (second line of Table S4)

SMILES | Distance moved in the novel cage (C57Bl/6 mice) | inhibition at 100 µM (mGluR5; [4]) [%] | inhibition at 100 µM (mGluR5; [5]) [%] | Substrate for glutamine synthetase (GS) [1] | Potassium-induced release from preloaded synaptosomes [2] | inhibition at 100 µM (mGluR2) [%] | Astrocyte uptake and conversion to 2MeGln [3] | Survival after single dose (C57Bl/6 mice; male, C57Bl/6, mouse, in vivo)
C[C@](N)(CCC(=O)O)C(=O)O [(S)-2MeGlu, (S)-2-methylglutamic acid] | significantly decreased | 11 | -4 | is a substrate for GS | released upon depolarization in a manner very similar to endogenous Glu | 25 | transported into astrocytes and then converted into 2MeGln | 
C[C@@](N)(CCC(=O)O)C(=O)O [(R)-2MeGlu, (R)-2-methylglutamic acid] | significantly decreased | -20 | -2 | not a substrate for GS | not significantly altered by depolarization | -3 | not detected within astrocytes in significant amounts, and no conversion to 2MeGln was detected | Only one mouse died 10 days after 900 mg/kg
